# Measured values published in patent publication US20120202693A1 (DOW AGROSCIENCES LLC, priority 2011, published 2012).
# Values joined by “and” are separate entries in the source; they are usually repeats but may differ in a detail not shown here. Identical values can stand only once.
# What was measured:
# Assay type in all cases: in vivo
# [1] = system: Chinese sprangletop (Leptochloa chinensis, LEFCH); assay: Postemergence herbicidal activity of mixtures in the greenhouse, visual weed control; conditions: 16 days after application
# Experimental: (§1) Evaluation of Postemergence Herbicidal Activity of Mixtures in the Greenhouse
# (§2) Seeds of the desired test plant species were planted in 80% mineral soil/20% grit planting mixture, which typically has a pH of 7.2 and an organic matter content of about 2.9 percent, in plastic pots with a surface area of 128 square centimeters (cm^2). The growing medium was steam sterilized. The plants were grown for 7-19 days in a greenhouse with an approximate 14-hour (h) photoperiod which was maintained at about 29° C. during the day and 26° C. during the night. Nutrients and water were added on a regular basis and supplemental lighting was provided with overhead metal halide 1000-Watt lamps as necessary. The plants were treated with postemergence foliar applications when they reached the second to fourth true leaf stage. All treatments were applied using a randomized complete block trial design, with 4 replications per treatment.
# (§3) Compound requirements are based upon a 12 mL application volume at a rate of 187 liters per hectare (L/ha). Spray solutions of the mixtures were prepared by adding the stock solutions to the appropriate amount of dilution solution to form 12 mL spray solution with active ingredients in single and two way combinations. Formulated compounds were applied to the plant material with an overhead Mandel track sprayer equipped with 8002E nozzles calibrated to deliver 187 L/ha at a spray height of 18 inches ([…] (cm)) above average plant canopy. The weed spectrum included broadleaf signalgrass (Brachiaria platyphylla, BRAPP), yellow nutsedge (Cyperus esculentus, CYPES), barnyardgrass (Echinochloa crus-galli, ECHCG), momingglory (Ipomoea, hederacea, IPOHE), and Chinese sprangletop (Leptochloa chinensis, LEFCH).
# (§4) The treated plants and control plants were placed in a greenhouse as described above and watered by sub-irrigation to prevent wash-off of the test compounds. Treatments were rated at 16 days after application (DAA) as compared to the untreated control plants. Visual weed control was scored on a scale of 0 to 100 percent where 0 corresponds to no injury and 100 corresponds to complete kill.
# (§5) Colby's equation was used to determine the herbicidal effects expected from the mixtures (Colby, S. R. Calculation of the synergistic and antagonistic response of herbicide combinations. Weeds 1967 15, 20-22).
# (§6) The following equation was used to calculate the expected activity of mixtures containing two active ingredients, A and B:
# (§7) A=observed efficacy of active ingredient A at the same concentration as used in the mixture;
# (§8) B=observed efficacy of active ingredient B at the same concentration as used in the mixture.
# [2] = system: broadleaf signalgrass (Brachiaria platyphylla, BRAPP); assay: as above; conditions: 16 days after application
# Experimental: as §1, §2, §3, §4, §5, §6, §7, §8
# [3] = system: morningglory (Ipomoea hederacea, IPOHE); assay: as above; conditions: 16 days after application
# Experimental: as §1, §2, §3, §4, §5, §6, §7, §8
# [4] = system: annual bluegrass (Poa annua, POAAN); assay: Postemergence herbicidal activity of mixtures under field conditions (vines), visual weed control; conditions: 27 days after application
# Experimental: (§9) Evaluation of Postemergence Herbicidal Activity of Mixtures under Field Conditions Methodology
# (§10) Trial site was located in commercially grown vines of European grape (Vitis vinifera). The trial was conducted using normal research methodology. Trial plots were between 2 m wide by […] long. All treatments were applied using a randomized complete block trial design with 3 replications per treatment. The trial sites had naturally occurring populations of weeds. The weed spectrum included, but was not limited to, ryegrass (Lolium spp, LOLSS), scented mayweed (Matricaria chamomilla, MATCH), and annual bluegrass (Poa annua, POAAN).
# (§11) Treatments consisted of tank mixes of an oil dispersion of penoxsulam and commercially available formulation of glyphosate applied in water. The application volume was 250 liters per hectare (L/ha). Application was made using a precision gas hand sprayer at 250 kPA pressure using a 2 m boom with flat fan (80015VS) nozzles to broadcast the treatments to the weeds and to the soil.
# (§12) […] Ratings were based on Percent (%) Visual weed control, where 0 corresponds to no control and 100 corresponds to complete control.
# as §5, §6, §7, §8
# [5] = system: ryegrass (Lolium spp, LOLSS); assay: as above; conditions: 61 days after application
# Experimental: as §9, §10, §11, §12, §5, §6, §7, §8
# [6] = system: scented mayweed (Matricaria chamomilla, MATCH); assay: as above; conditions: 27 days after application
# Experimental: as §9, §10, §11, §12, §5, §6, §7, §8
# [7] = system: barnyardgrass (Echinochloa crus-galli, ECHCG); assay: Postemergence herbicidal activity of mixtures in the greenhouse, visual weed control; conditions: 16 days after application
# Experimental: as §1, §2, §3, §4, §5, §6, §7, §8
# [8] = system: yellow nutsedge (Cyperus esculentus, CYPES); assay: as above; conditions: 16 days after application
# Experimental: as §1, §2, §3, §4, §5, §6, §7, §8
# [9] = Glyphosate (IPA salt) 210 grams ai/ha alone
# [10] = Glyphosate 720 grams ai/ha alone
# [11] = Penoxsulam 1.3 grams ai/ha alone
# [12] = Penoxsulam 2.5 grams ai/ha alone
# [13] = Penoxsulam 10 grams ai/ha alone
# [14] = Penoxsulam 20 grams ai/ha alone
compound,measurement,setting,value
"O=C(O)CNCP(=O)(O)O [Glyphosate, N-(phosphonomethyl)glycine]",LEFCH Obs (Observed control),[1]; Glyphosate (IPA salt) 53 grams ai/ha alone,1%
same,LEFCH Obs (Observed control),[1]; [9],41%
same,BRAPP Obs (Observed control),[2]; Glyphosate (IPA salt) 110 grams ai/ha alone,15%
same,IPOHE Obs (Observed control),[3]; [9],31%
same,POAAN Obs (Observed control),[4]; [10],93%
same,LOLSS Obs (Observed control),[5]; [10],60%
same,MATCH Obs (Observed control),[6]; [10],50%
"COc1cnc(OC)n2nc(NS(=O)(=O)c3c(OCC(F)F)cccc3C(F)(F)F)nc12 [Penoxsulam, 2-(2,2-difluoroethoxy)-N-(5,8-dimethoxy-[1,2,4]triazolo[1,5-c]pyrimidin-2-yl)-6-(trifluoromethyl)benzenesulfonamide]",LEFCH Obs (Observed control),[1]; [11],5%
same,LEFCH Obs (Observed control),[1]; [12],1%
same,LEFCH Obs (Observed control),[1]; Penoxsulam 5 grams ai/ha alone,2%
same,LEFCH Obs (Observed control),[1]; [13],6.3% and 6%
same,ECHCG Obs (Observed control),[7]; [11],63%
same,ECHCG Obs (Observed control),[7]; [12],62%
same,BRAPP Obs (Observed control),[2]; [11],9%
same,BRAPP Obs (Observed control),[2]; [12],10%
same,BRAPP Obs (Observed control),[2]; Penoxsulam 5 grams ai/ha alone,4%
same,IPOHE Obs (Observed control),[3]; [11],16%
same,IPOHE Obs (Observed control),[3]; [12],31%
same,IPOHE Obs (Observed control),[3]; Penoxsulam 5 grams ai/ha alone,31%
same,IPOHE Obs (Observed control),[3]; [13],31%
same,CYPES Obs (Observed control),[8]; [11],5.8% and 6%
same,CYPES Obs (Observed control),[8]; [12],31.8% and 32%
same,CYPES Obs (Observed control),[8]; Penoxsulam 5 grams ai/ha alone,44%
same,CYPES Obs (Observed control),[8]; [13],65%
same,POAAN Obs (Observed control),[4]; [14],0%
same,LOLSS Obs (Observed control),[5]; [14],0%
same,MATCH Obs (Observed control),[6]; [14],0%
